In data set [1] the test system is vimentin-deficient cells. In words: Par-4 secretion from vimentin-deficient cells. Format: cell-based.
The subject of data set [2] is DU145 cells. In words: Apoptosis, DU145 cells. Particulars: 500 nM. Format: cell-based, human. As to the method:
(§1) See Hebbar, N., Wang, C. & Rangnekar, V. M. J Cell Phys 227, 3715-3721 (2012) and Shrestha-Bhattarai, T., Hebbar, N. & Rangnekar, V. M. Cancer Cell 24, 3-5 (2013). A total of three independent experiments were performed; and approximately 500 cells were scored in each experiment for apoptosis under a fluorescent microscope. Cell surface GRP78 expression on the cancer cell surface was quantified by FACS analysis in the Flow Cytometry Shared Resource Facility, Markey Cancer Center as previously described. See Hebbar, N., Wang, C. & Rangnekar, V. M. J Cell Phys 227, 3715-3721 (2012).

Data set [3] has as its system prostate cancer cells. In words: Par-4 secretion from prostate cancer cells. Particulars: relative to vehicle control. Format: cell-based.
Data set [4] relates to panel of lung tumor cells. In words: Par-4 secretion from lung tumor cells. Type of data set: cell-based.
For data set [5], the system named is vimentin. Briefly: Pull-down with biotinylated arylquin to identify target protein. Particulars: lysates of MEFs and HEL cells, biotinylated analog. Format: binding, mouse (MEFs), human (HEL). As to the method:
Pull down experiments: To identify the target protein for compound Arylquin 1, pull-down experiments were performed as described previously. See Bargagna-Mohan, P., et al. J Biol Chem 285, 7657-7669 (2010). MEFs or HEL cells (grown to confluence in 15 cm plates) were lysed in […] lysis buffer (40 mM Hepes, pH 7.8; 140 mM NaCl; 10 mM NaF; 10% Glycerol, 1 mM EDTA; 1% Triton 100), and the lysates were pre-cleared at 4° C. for 1 h with 100 μL streptavidin beads (Novagen, Strep-Tactin Superflow Agarose). Binding reactions were performed by incubating the pre-cleared cell lysates with 50 μL beads±25 μg of biotinylated Arylquin 1 at 4° C. for 2 h. The beads were then washed four times with buffer (40 mM Hepes, pH 7.8; 140 mM NaCl; 10 mM NaF; 10% Glycerol, 1 mM EDTA), and bound protein was eluted with 50 μL of 2.5 mM Biotin/PBS. Eluted proteins were resolved by SDS-PAGE and Coomassie blue staining.

Data set [6] relates to normal cells (MEFs, HELs, HBEC, PrE, PrS). Briefly: Apoptosis by ICC for active caspase-3, normal cells. Format: cell-based, human, mouse. As for the experimental part:
(§2) Normal cells (MEFs, HELs, HBEC, PrE, prostate stromal cells PrS) or lung cancer cells (human A549 and H460, mouse LLC1 and KP7B) and prostate cancer cells (PC-3 MM2, DU145, LNCaP) were treated with the indicated amounts (0.5, 1 and 10 μM) of Arylquin 1 or vehicle (V) for 24 h, and apoptosis was determined by ICC for active caspase-3. Data shown represent mean values from three independent experiments±s.d. Asterisks (**) or (*) indicate statistical significance (P<0.0001) or (P<0.001), respectively, by the Student t test.
as §1

The target of data set [7] is T1, binding of Par-4 to vimentin (Homo sapiens, UniProt P08670).
T1 construct: the Par-4 antibody co-immunoprecipitated endogenous vimentin; endogenous in cells
T1 sequence (P08670 2-466 limits assumed): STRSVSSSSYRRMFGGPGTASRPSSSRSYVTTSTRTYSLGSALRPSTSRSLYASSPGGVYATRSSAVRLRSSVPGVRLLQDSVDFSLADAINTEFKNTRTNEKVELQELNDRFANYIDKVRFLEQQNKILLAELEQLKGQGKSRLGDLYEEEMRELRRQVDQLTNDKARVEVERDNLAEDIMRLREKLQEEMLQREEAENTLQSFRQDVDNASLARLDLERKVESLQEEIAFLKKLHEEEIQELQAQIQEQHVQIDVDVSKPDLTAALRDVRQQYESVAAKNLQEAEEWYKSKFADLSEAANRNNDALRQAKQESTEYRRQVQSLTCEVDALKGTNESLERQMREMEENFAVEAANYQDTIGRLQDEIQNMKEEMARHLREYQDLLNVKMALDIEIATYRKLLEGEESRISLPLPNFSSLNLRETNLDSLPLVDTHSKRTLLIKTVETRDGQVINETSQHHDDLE
Briefly: Co-immunoprecipitation and immunocytochemistry of Par-4 and vimentin. Type of data set: cell-based. Particulars: cells treated with compound. As for the experimental part: Co-Immunoprecipitation and Western blot analysis: Protein extracted from cell lysates was filtered, pre-cleared with 25 μL (bed volume) of protein G-Sepharose beads and immunoprecipitated with 1 μg of respective antibodies. The eluted proteins were resolved by SDS-PAGE, and subjected to Western blot analysis as described.

Data set [8] concerns cancer cell cultures (PC-3 MM2 cells). Briefly: Ex vivo apoptosis of cancer cell cultures by serum from treated mice. Type of data set: in vivo, C57BL/6 mice (serum). As to the method:
(§3) Top: Cancer cells were co-cultured with MEFs and treated with Arylquin 1 (500 nM) or vehicle and tested for apoptosis. Bottom: Serum from mice injected with Arylquin 1 (Aq) or corn oil vehicle (V), was examined by Western blot analysis (not shown). Aliquots of serum from these mice were either directly added to the growth medium of cells in culture, or incubated with the indicated antibody, and then added to the growth medium of PC-3 MM2 cells to test for apoptosis.
(§4) Animal experiments: C57BL/6 mice were injected via the intraperitoneal route with Arylquin 1 (10 mg/kg body weight) or corn oil vehicle, and whole-blood samples were collected 24 h later. Serum was separated from the blood samples, heated at 56° C. to inactivate complement. Aliquots of the mouse serum samples were added to the growth medium (final 20% mouse serum) of normal and cancer cells in culture and tested for induction of ex vivo apoptosis in cancer cells. All animal procedures were performed with University of Kentucky IACUC approval.

Data set [9] relates to diverse cancer cells (lung cancer A549, H460, LLC1, KP7B; prostate cancer PC-3 MM2, DU145, LNCaP). Briefly: Apoptosis by ICC for active caspase-3, cancer cells. Type of data set: cell-based, human, mouse. As for the experimental part: as §2, §1
Data set [10] relates to Par-4 in serum. Briefly: Circulating Par-4 in serum of injected mice. Type of data set: in vivo, C57BL/6 mice. Particulars: 10 mg/kg intraperitoneal, 24 h. As for the experimental part: as §4
The subject of data set [11] is cancer cells co-cultured with Par-4+/+ MEFs. Briefly: Apoptosis in co-cultures of Par-4+/+ MEFs and cancer cells. Type of data set: cell-based. As to the method: as §3, §1
For data set [12], the system named is LNCaP. Briefly: Apoptosis, LNCaP cells. Format: cell-based, human. Particulars: 500 nM. As to the method: as §1
For data set [13], the system named is PC-3MM2. Briefly: Apoptosis, PC-3MM2 cells. Type of data set: cell-based, human. Particulars: 500 nM. As for the experimental part: as §1

With `CN(C)c1ccc2cc(-c3ccccc3F)c(N)nc2c1` [Arylquin 1, 3-(2-fluorophenyl)-N^7,N^7-dimethylquinoline-2,7-diamine], the Par-4 secretion result in data set [1] was “did not further induce Par-4 secretion”; in data set [3], “showed induction of Par-4 secretion”; in data set [4], “failed to induce the secretion of Par-4”. The apoptosis entry in data set [2] was “not in LNCaP or DU145 cells”; in [6] (0.5, 1 and 10 μM, 24 h), “not in normal cells”; in data set [9] (0.5, 1 and 10 μM, 24 h) it was “induced the dose-dependent apoptosis in cancer cells”; in [12], “not in LNCaP or DU145 cells”; in data set [13], “induced apoptosis”. Further, the “target protein identified by pull-down” value in [5] is listed as “Vimentin was the primary target”. Besides, the direct apoptosis result in data set [6] (500 nM) and in data set [9] (500 nM) was “did not directly induce apoptosis” throughout. Moreover, the “Par-4 co-immunoprecipitation and co-localization with vimentin” value in data set [7] was “neither Par-4 co-immunoprecipitation nor co-localization with vimentin”. Moreover, the vimentin expression result in data set [7] is given as “not associated with inhibition of vimentin expression”. Besides, in data set [8] (serum incubated with Par-4 antibody), the “pro-apoptotic activity in serum after Par-4 antibody” value is on record as “neutralized by the Par-4 antibody”. In data set [8] (serum of treated vs vehicle-treated mice, final 20% mouse serum), the “ex vivo apoptosis of cancer cell cultures by serum” value is “significantly higher (P<0.001) ex vivo apoptosis”. In data set [10], the “Par-4 secretion in serum relative to vehicle control” value was 5 fold. Further, the “apoptosis of cancer cells in co-culture” value in data set [11] (500 nM, Par-4+/+ MEFs, relative to vehicle) is “resulted in apoptosis of the cancer cells”. For the same molecule, the “paracrine apoptosis of lung cancer cells by Par-4 secreted from normal cells” value in [11] (p53-wild type, p53-deficient and oncogenic K-ras lung cancer cells) is recorded as “adequate to induce paracrine apoptosis”.
